Test results reported in article PMC12750277, “Combining Experimental Assays and Molecular Modeling to Evaluate Monosubstituted Cinnamic Acid Derivatives as PDE4B Inhibitors” (ACS Omega, 2025).
Where “and” joins values, the source holds several entries; their conditions need not be identical. Equal entries are not always repeated. Where two headings read alike, the source gives them in different places.

Experiments:
PDE4B = PDE4B (Homo sapiens, UniProt Q07343); assay: Human PDE4 enzyme inhibition assay ([3H]-cAMP), PDE4B; assay type: biochemical
Chain of PDE4B (Q07343 249-736 limits assumed): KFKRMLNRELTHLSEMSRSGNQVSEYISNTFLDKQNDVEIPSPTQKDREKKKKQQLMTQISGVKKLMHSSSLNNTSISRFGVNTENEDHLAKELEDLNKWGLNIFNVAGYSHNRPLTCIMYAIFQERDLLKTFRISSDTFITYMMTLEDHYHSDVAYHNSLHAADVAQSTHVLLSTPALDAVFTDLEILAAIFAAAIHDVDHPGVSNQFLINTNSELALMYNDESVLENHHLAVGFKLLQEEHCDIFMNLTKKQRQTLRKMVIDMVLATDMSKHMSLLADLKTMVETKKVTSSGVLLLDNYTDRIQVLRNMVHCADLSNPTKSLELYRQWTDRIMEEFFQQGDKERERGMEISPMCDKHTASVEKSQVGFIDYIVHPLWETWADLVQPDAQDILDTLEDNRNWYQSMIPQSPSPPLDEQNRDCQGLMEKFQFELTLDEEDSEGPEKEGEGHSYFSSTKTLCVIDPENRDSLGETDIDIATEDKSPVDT
Description: (§1) A standard procedure for PDE testing was carried out according to the previously mentioned protocol. , The enzyme was prepared from U937 cells which were derived from human monocytes, and was stored at −20 °C after preparation. Measurement of PDE4 activity was performed using this stored enzyme after it was diluted with distilled water containing bovine serum albumin. The substrate solution was prepared by adding [3H]-cAMP (300,000 dpm (5000 Bq)/ assay) and […] solution to 100 mmol/L Tris-HCl (pH 8.0) containing 5 mmol/L ethylene glycol-bis (β-aminoethyl ether) and O,O′-bis(2-aminoethyl)-ethylene glycol-N,N,N′,N′-tetraacetic acid. The substrate solution was mixed with the enzyme solution containing a test compound dissolved in DMSO, and incubation was done for 30 min at 30 °C.

[1] = system: TNF-α release in human blood mononuclear cells; assay: LPS-stimulated TNF-α release in PBMCs (TR-FRET); assay type: cell-based; conditions: PBMC, LPS stimulation 18 h, read-out: TNFα IC50
Description: The blood was mixed with saline at a ratio of 1:1, and the peripheral blood mononuclear cells (PBMCs) were isolated from buffy coats using Lymphoprep tubes. The PBMCs were suspended in RPMI 1640 with 0.5% human serum albumin, pen/strep, and 2 mM L-glutamine at 5 × 10^5 cells/mL. The cells were preincubated with the test compounds in 96-well plates for 30 min and stimulated for 18 h with […] lipopolysaccharide. TNF-α concentration in the supernatants was measured by homogeneous time-resolved fluorescence resonance (TR-FRET). The assay was quantified by measuring fluorescence at 665 nm (proportional to TNF-α concentration) and 620 nm (control). Results are expressed as IC50 values (μM).
The inhibitory effect of the 19 compounds on the release of HM-TNF-α correlated well with their potency in inhibiting PDE4. […] The well-established correlation between PDE4 inhibition and TNF-α suppression is mechanistically explained by the following pathway: By inhibiting PDE4, these compounds elevate intracellular cAMP levels, which in turn activates protein kinase A (PKA). PKA phosphorylates and inhibits key transcription factors like NF-κB, leading to the downregulation of pro-inflammatory cytokines such as TNF-α. This mechanism provides a solid foundation for understanding the anti-inflammatory effects observed in our study.

PDE4D = PDE4D (Homo sapiens, UniProt Q08499); assay: Human PDE4 enzyme inhibition assay ([3H]-cAMP), PDE4D; assay type: biochemical
Chain of PDE4D (Q08499 386-715 limits assumed): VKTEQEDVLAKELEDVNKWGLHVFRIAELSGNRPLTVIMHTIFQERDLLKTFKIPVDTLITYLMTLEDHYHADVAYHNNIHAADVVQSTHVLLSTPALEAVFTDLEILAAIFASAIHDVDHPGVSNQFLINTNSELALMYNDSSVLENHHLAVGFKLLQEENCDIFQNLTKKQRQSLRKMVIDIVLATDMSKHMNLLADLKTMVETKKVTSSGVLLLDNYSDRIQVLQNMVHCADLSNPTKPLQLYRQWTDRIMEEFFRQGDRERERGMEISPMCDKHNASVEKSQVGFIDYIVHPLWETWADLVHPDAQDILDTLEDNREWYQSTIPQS
Description: as §1

LPS induced TNF-α = assay: LPS induced sepsis for measurement of TNF-α inhibition in mice; assay type: in vivo; conditions: Swiss Albino mice (n = 6), 10 mg/kg po, serum 90 min after LPS
Description: The sepsis model in mice was induced using lipopolysaccharide (LPS) according to the methods described in the literature. Female Swiss albino mice were selected according to the body weights, which were equivalent within each group. The mice were fasted for 20 h with free access to water and dosed for oral administration (po) with the test compounds suspended in vehicle containing 0.5% Tween 80 in 0.25% sodium salt of carboxymethylcellulose. The control mice received the vehicle alone. After 30 min of oral dosing, the mice were injected intraperitoneally with 500 μg of lipopolysaccharide (Escherichia coli, LPS: B4 from Sigma) in phosphate buffer. Then the mice were bled via retro-orbital sinus puncture after 90 min of LPS administration. Serum samples were collected by centrifuging the blood samples at 4000 rpm for 20 min, which were stored overnight at 4 °C. The serum samples were then immediately checked for TNF-α levels using commercial mouse TNF-α ELISA kit (Amersham Biosciences) and assay was carried out following the manufacturer’s instruction.
In vivo experiments were conducted using an LPS-induced sepsis model to measure TNF-α inhibition in female Swiss Albino mice and to assess neutrophilia inhibition for asthma and COPD in male Sprague–Dawley rats. Details such as the oral dosages and the number of animals used, along with the percentage inhibition of neutrophilia calculated from the DLC, are provided in Table . […] These findings are particularly relevant in the context of COPD pathophysiology, where both TNF-α-driven inflammation and neutrophilic influx are well-established key drivers of tissue damage and disease progression.

[2] = system: LPS induced neutrophilia (neutrophil influx in BALF); assay: LPS induced neutrophilia model for asthma and COPD; assay type: in vivo; conditions: Sprague–Dawley rats (n = 6), 10 mg/kg po, BAL 6 h after LPS
Description: Neutrophilia was induced in Sprague–Dawley rats by lipopolysaccharide (LPS) following the established protocol. Male Sprague–Dawley rats were acclimatized to laboratory conditions for 1 week prior to the experiment. According to the body weight, the rats were distributed to various groups randomly. Except for the normal group, all the rats were exposed to 100 μg/mL lipopolysaccharide (E. coli, LPS: B4 from Sigma) for 40 min. The rats were dosed with the test compound suspended in the vehicle containing 0.25% carboxymethyl cellulose before half an hour of LPS exposure. Bronchoalveolar lavage (BAL) was performed 6 h after LPS exposure, total cell count and differential leukocyte count (DLC) were performed and compared with control and the standard drug.
In vivo experiments were conducted using an LPS-induced sepsis model to measure TNF-α inhibition in female Swiss Albino mice and to assess neutrophilia inhibition for asthma and COPD in male Sprague–Dawley rats.

[3] = system: tumor necrosis factor-α (TNF-α) in bronchoalveolar lavage fluid; conditions: oral administration, experimental COPD mice; cited from earlier work
[4] = PDE4B, as listed in Table S4 (rounded), read-out: IC50
[5] = enzyme prepared from U937 cells, average of at least three assays, read-out: PDE4B IC50
[6] = log(1/IC50), IC50 in μM, read-out: PDE4B pIC50 (Experimental) (converted)
[7] = enzyme prepared from U937 cells, average of at least three assays, read-out: PDE4D IC50
[8] = PDE4B IC50, enzyme prepared from U937 cells, average of at least three assays
[9] = PDE4B pIC50 (Experimental), log(1/IC50), IC50 in μM

| SMILES | IC50 (PDE4B; [4]) [µM] | IC50 (PDE4B; [5]) [µM] | IC50 (PDE4B; [6]) [µM] | IC50 [1] [µM] | IC50 (PDE4D; [7]) [µM] | further results |
| --- | --- | --- | --- | --- | --- | --- |
| O=C(O)/C=C/c1ccc(C(F)(F)F)cc1 [Compound 19, trans-4-trifluoromethylcinnamic acid] | 97 | 97.2 ± 4.3 | 97.7 | 118 ± 5.1 |  |  |
| O=Cc1ccc(/C=C/C(=O)O)cc1 [Compound 15, trans-4-formylcinnamic acid] | 101 | 101 ± 5.4 | 100 | 98.5 ± 2.8 |  |  |
| CN(C)c1ccc(/C=C/C(=O)O)cc1 [Compound 18, trans-4-dimethylaminocinnamic acid] | 33 |  | 33.1 | 65.2 ± 3.1 | 19.6 ± 1.1 |  |
| COc1ccc(C2CNC(=O)C2)cc1OC1CCCC1 (stereo not shown) [Rolipram, reference compound] |  |  |  | 18.5 ± 1 |  | TNF-α inhibition (%) (LPS induced TNF-α): 41.7% and 41.7 ± 0.78%; LPS induced neutrophilia (% inhibition) [2]: 32.8% and 32.8 ± 0.40% |
| O=C(O)C=Cc1cc(O)c(O)c(O)c1 [THCA, 3,4,5-Trihydroxycinnamic acid] |  |  |  |  |  | TNF-α in bronchoalveolar lavage fluid [3]: significantly inhibited |
| COc1ccc(/C=C/C(=O)O)cc1 [Compound 7, trans-4-methoxycinnamic acid] |  | 8.2 ± 1.2 | 8.13 | 30.8 ± 1.6 | 45.6 ± 1.8 | selectivity for PDE4B over PDE4D (PDE4B; compared with rolipram): higher selectivity ratios for PDE4B over PDE4D than rolipram; TNF-α inhibition (%) (LPS induced TNF-α): 29.6% and 29.6 ± 0.36%; LPS induced neutrophilia (% inhibition) [2]: 24.2% and 24.2 ± 0.52% |
| O=C(O)/C=C/c1ccc(O)cc1 [Compound 4, p-coumaric acid] |  |  |  | 21.5 ± 1.3 |  | IC50 (PDE4B; [8]): 2.2 ± 0.8 µM; IC50 (PDE4B; [9]): 2.19 µM; TNF-α inhibition (%) (LPS induced TNF-α): 41.1% and 41.1 ± 0.65%; LPS induced neutrophilia (% inhibition) [2]: 32.5% and 32.5 ± 0.33%; IC50 (PDE4D): 2.3 ± 0.7 µM |
| O=C(O)/C=C/c1ccc([N+](=O)[O-])cc1 [Compound 14, trans-4-nitrocinnamic acid] | 111 | 112 ± 6.4 | 112 | 96.5 ± 3 |  |  |
| O=C(O)/C=C/c1ccccc1 [Compound 1, trans-cinnamic acid] |  |  |  | 198 ± 8.2 |  | IC50 (PDE4B; [8]): 90.3 ± 3.8 µM; IC50 (PDE4B; [9]): 91.2 µM |

More lines, main results first:

| IC50 (PDE4B; [4]) [µM] | IC50 (PDE4B; [5]) [µM] | IC50 (PDE4B; [6]) [µM] | IC50 [1] [µM] | IC50 (PDE4D; [7]) [µM] | SMILES | further results |
| --- | --- | --- | --- | --- | --- | --- |
| 85 | 85.3 ± 3.8 | 85.1 | 99.2 ± 4.1 |  | Cc1ccc(/C=C/C(=O)O)cc1 [Compound 10, trans-4-methylcinnamic acid] |  |
| 87 | 87.2 ± 3.5 | 87.1 | 125 ± 5.5 |  | O=C(O)/C=C/c1ccc(Br)cc1 [Compound 17, trans-4-bromocinnamic acid] |  |
| 33 | 33.4 ± 1.5 | 33.1 | 65.2 ± 3.1 | 36.6 ± 2.1 | O=C(O)/C=C/c1ccc(F)cc1 [Compound 16, trans-4-fluorocinnamic acid] |  |
| 82 | 82.1 ± 3.9 | 81.3 | 128 ± 5.8 | 89.6 ± 3.7 | O=C(O)/C=C/c1ccccc1Cl [Compound 11, trans-2-chlorocinnamic acid] |  |
| 102 | 102 ± 4.1 | 102 | 121 ± 5.7 |  | Cc1cccc(/C=C/C(=O)O)c1 [Compound 9, trans-3-methylcinnamic acid] |  |
| 136 | 137 ± 5.8 | 135 | 169 ± 5.1 |  | Cc1ccccc1/C=C/C(=O)O [Compound 8, trans-2-methylcinnamic acid] |  |
|  | 28.4 ± 1.4 | 28.2 | 37.8 ± 1.9 | 32.7 ± 2.1 | O=C(O)/C=C/c1cccc(O)c1 [Compound 3, meta-coumaric acid] |  |
|  | 51.1 ± 1.9 | 51.3 | 64.2 ± 3.1 | 91.4 ± 2.9 | COc1ccccc1/C=C/C(=O)O [Compound 5, trans-2-methoxycinnamic acid] |  |
|  | 32.8 ± 1.1 | 33.1 | 58.3 ± 2 | 65.6 ± 1.8 | COc1cccc(/C=C/C(=O)O)c1 [Compound 6, trans-3-methoxycinnamic acid] |  |
|  | 41.4 ± 1.3 | 41.7 | 40.4 ± 0.8 | 39.6 ± 1.7 | O=C(O)/C=C/c1ccccc1O [Compound 2, ortho-coumaric acid] |  |
| 44 | 44.5 ± 2.2 | 43.7 | 89.7 ± 3.2 | 57.3 ± 2.4 | O=C(O)/C=C/c1ccc(Cl)cc1 [Compound 13, trans-4-chlorocinnamic acid] |  |
| 63 | 63.2 ± 3.4 | 63.1 | 119 ± 4.8 | 62.7 ± 2.8 | O=C(O)/C=C/c1cccc(Cl)c1 [Compound 12, trans-3-chlorocinnamic acid] |  |
